The experiment relates to L1210 leukemia ip in BDF1 mice, survival T/C. The experiment can be described thus: NCI In Vivo Anticancer Drug Screen. Data for tumor model L1210 Leukemia (intraperitoneal) in B6D2F1 (BDF1) mice. As to conditions: endpoint: mean survival time, higher = longer survival. The method, boiled down:
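In this screen, tumor-bearing mice given compound are compared to those given vehicle, and their survival values are reported as a treated-to-control quotient.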

The mark [1] stands for this setting: dose: 25.0 mg/kg/injection, schedule: Q04DX003 (ip), vehicle: saline with Tween-80.
Setting [2] is: dose: 50.0 mg/kg/injection, schedule: Q04DX003 (ip), vehicle: saline with Tween-80.
The mark [3] stands for this setting: dose: 100.0 mg/kg/injection, schedule: Q01DX001 (ip), vehicle: carboxymethylcellulose (CMC).
Where [4] appears, read: dose: 200.0 mg/kg/injection, schedule: Q01DX001 (ip), vehicle: carboxymethylcellulose (CMC).
Setting [5] is: dose: 400.0 mg/kg/injection, schedule: Q01DX001 (ip), vehicle: carboxymethylcellulose (CMC).
The mark [6] stands for this setting: dose: 100.0 mg/kg/injection, schedule: Q04DX003 (ip), vehicle: Klucel (hydroxypropylcellulose) (HPC).
The mark [7] stands for this setting: dose: 200.0 mg/kg/injection, schedule: Q04DX003 (ip), vehicle: Klucel (hydroxypropylcellulose) (HPC).
Setting [8] is: dose: 100.0 mg/kg/injection, schedule: Q01DX009 (ip), vehicle: saline with Tween-80.
Where [9] appears, read: dose: 100.0 mg/kg/injection, schedule: Q01DX001 (ip), vehicle: saline.
The mark [10] stands for this setting: dose: 200.0 mg/kg/injection, schedule: Q01DX001 (ip), vehicle: saline.
Setting [11] is: dose: 400.0 mg/kg/injection, schedule: Q01DX001 (ip), vehicle: saline.

The structures appear in SMILES notation. Several values for one entry are separate records, joined by “and”; a condition that tells them apart may be missing. Equal values may be shown once. Toxic doses and inconclusive results are not listed.

Turning to `CCN1C(=O)C2C3C=CC(C3)C2C1=O` (centres undefined), the T/C runs as follows: under setting [1], 97 % of control; under setting [2], 104 % of control.
As for `Nc1ccc(C(=O)CC(=O)c2cccc([N+](=O)[O-])c2)cc1`, the T/C was 97 % of control (dose: 100.0 mg/kg/injection, schedule: Q04DX003 (ip), vehicle: carboxymethylcellulose (CMC)); 93 % of control (dose: 200.0 mg/kg/injection, schedule: Q04DX003 (ip), vehicle: carboxymethylcellulose (CMC)); 90 % of control (dose: 400.0 mg/kg/injection, schedule: Q04DX003 (ip), vehicle: carboxymethylcellulose (CMC)).
Take `Cc1nc(N)n(C)n1`: the T/C is, setting by setting: (dose: 100.0 mg/kg/injection, schedule: Q04DX002 (ip), vehicle: saline) 104 % of control; (dose: 200.0 mg/kg/injection, schedule: Q04DX002 (ip), vehicle: saline) 101 % of control; (dose: 400.0 mg/kg/injection, schedule: Q04DX002 (ip), vehicle: saline) 101 % of control.
`N#C/C(=C/c1cc(Cl)ccc1O)C(N)=O`: the T/C is, setting by setting: (dose: 100.0 mg/kg/injection, schedule: Q01DX009 (ip), vehicle: Klucel (hydroxypropylcellulose) (HPC)) 102 % of control; (dose: 200.0 mg/kg/injection, schedule: Q01DX009 (ip), vehicle: Klucel (hydroxypropylcellulose) (HPC)) 95 % of control; (dose: 400.0 mg/kg/injection, schedule: Q01DX009 (ip), vehicle: Klucel (hydroxypropylcellulose) (HPC)) 100 % of control.
`CCOC(=O)CNc1ccc(Cl)cc1`: the T/C is, setting by setting: (dose: 25.0 mg/kg/injection, schedule: Q04DX002 (ip), vehicle: Klucel (hydroxypropylcellulose) (HPC)) 98 % of control and 106 % of control; (dose: 50.0 mg/kg/injection, schedule: Q04DX002 (ip), vehicle: Klucel (hydroxypropylcellulose) (HPC)) 102 % of control; (dose: 100.0 mg/kg/injection, schedule: Q04DX002 (ip), vehicle: Klucel (hydroxypropylcellulose) (HPC)) 101 % of control and 91 % of control; (dose: 200.0 mg/kg/injection, schedule: Q04DX002 (ip), vehicle: Klucel (hydroxypropylcellulose) (HPC)) 102 % of control.
As to `O=c1[nH]nc(S(=O)(=O)c2ccccc2)c(=O)[nH]1`, the T/C reads like this: under setting [3], 95 % of control; under setting [4], 95 % of control; under setting [5], 95 % of control.
`O=C(NCCCl)Nc1ccc2c3c1CCCC3CC2` (centres undefined): the T/C was 106 % of control (dose: 50.0 mg/kg/injection, schedule: Q04DX003 (ip), vehicle: Klucel (hydroxypropylcellulose) (HPC)); 107 % of control under setting [6]; 102 % of control under setting [7].
As for `OCc1cc(Cl)ccc1O`, the T/C (dose: 100.0 mg/kg/injection, schedule: Q01DX009 (ip), vehicle: other) was 91 % of control; the T/C (dose: 100.0 mg/kg/injection, schedule: Q04DX003 (ip), vehicle: other) was 103 % of control; the T/C (dose: 200.0 mg/kg/injection, schedule: Q01DX009 (ip), vehicle: other) was 120 % of control; the T/C (dose: 200.0 mg/kg/injection, schedule: Q04DX003 (ip), vehicle: other) is 95 % of control; the T/C (dose: 400.0 mg/kg/injection, schedule: Q04DX003 (ip), vehicle: other) was 93 % of control.
Regarding `Nc1[nH]c(=O)ncc1-c1ccccc1Cl`, the T/C is, setting by setting: (dose: 25.0 mg/kg/injection, schedule: Q01DX009 (ip), vehicle: saline with Tween-80) 88 % of control; (dose: 25.0 mg/kg/injection, schedule: Q04DX002 (ip), vehicle: saline with Tween-80) 92 % of control and 100 % of control; under setting [1], 93 % of control; (dose: 50.0 mg/kg/injection, schedule: Q01DX001 (ip), vehicle: saline with Tween-80) 101 % of control; (dose: 50.0 mg/kg/injection, schedule: Q01DX009 (ip), vehicle: saline with Tween-80) 91 % of control; (dose: 50.0 mg/kg/injection, schedule: Q04DX002 (ip), vehicle: saline with Tween-80) 101 % of control and 103 % of control. The T/C under setting [2] was 92 % of control; the T/C (dose: 100.0 mg/kg/injection, schedule: Q01DX001 (ip), vehicle: saline with Tween-80) was 101 % of control; the T/C under setting [8] is 94 % of control and 91 % of control; the T/C (dose: 100.0 mg/kg/injection, schedule: Q04DX003 (ip), vehicle: saline with Tween-80) was 103 % of control; the T/C (dose: 200.0 mg/kg/injection, schedule: Q04DX003 (ip), vehicle: saline with Tween-80) is 101 % of control.
With `O=NN(CCCl)C(=O)Nc1ccc(Oc2ccc(NC(=O)N(CCCl)N=O)cc2)cc1`, the T/C runs as follows: (dose: 375.0 mg/kg/injection, schedule: Q01DX001 (ip), vehicle: carboxymethylcellulose (CMC)) 192 % of control; (dose: 500.0 mg/kg/injection, schedule: Q01DX001 (ip), vehicle: carboxymethylcellulose (CMC)) 198 % of control; (dose: 750.0 mg/kg/injection, schedule: Q01DX001 (ip), vehicle: carboxymethylcellulose (CMC)) 190 % of control; (dose: 1000.0 mg/kg/injection, schedule: Q01DX001 (ip), vehicle: carboxymethylcellulose (CMC)) 154 % of control and 246 % of control; (dose: 1250.0 mg/kg/injection, schedule: Q01DX001 (ip), vehicle: carboxymethylcellulose (CMC)) 104 % of control; (dose: 1500.0 mg/kg/injection, schedule: Q01DX001 (ip), vehicle: carboxymethylcellulose (CMC)) 122 % of control. Moreover, where the note is “dose: 2000.0 mg/kg/injection, schedule: Q01DX001 (ip), vehicle: carboxymethylcellulose (CMC)”, the T/C is 86 % of control.
Regarding `Cc1n(CC(C)C)c2c([n+]1CC(=O)c1ccc([N+](=O)[O-])cc1)C(=O)c1ccccc1C2=O`, the T/C is 93 % of control (dose: 5.0 mg/kg/injection, schedule: Q01DX001 (ip), vehicle: carboxymethylcellulose (CMC)); 86 % of control (dose: 10.0 mg/kg/injection, schedule: Q01DX001 (ip), vehicle: carboxymethylcellulose (CMC)); 97 % of control (dose: 20.0 mg/kg/injection, schedule: Q01DX001 (ip), vehicle: carboxymethylcellulose (CMC)).
As for `O=c1[nH]c2cc(Br)ccc2c2ccccc12`, the T/C runs as follows: under setting [3], 95 % of control; under setting [4], 101 % of control; under setting [5], 94 % of control.
For the compound `COc1ccc(C(=O)C(C)C)cc1`, the T/C runs as follows: (dose: 37.5 mg/kg/injection, schedule: Q01DX009 (ip), vehicle: saline sonified) 95 % of control; (dose: 75.0 mg/kg/injection, schedule: Q01DX009 (ip), vehicle: saline sonified) 93 % of control; (dose: 150.0 mg/kg/injection, schedule: Q01DX009 (ip), vehicle: saline sonified) 103 % of control.
On to `CCCCCCCCCCCCCCCCCCNC(=O)Nc1c(C)cc(C)cc1C`, for which the T/C was 94 % of control (dose: 100.0 mg/kg/injection, schedule: Q01DX009 (ip), vehicle: gum acacia); 90 % of control (dose: 100.0 mg/kg/injection, schedule: Q04DX003 (ip), vehicle: gum acacia); 87 % of control (dose: 200.0 mg/kg/injection, schedule: Q01DX009 (ip), vehicle: gum acacia); 93 % of control (dose: 200.0 mg/kg/injection, schedule: Q04DX003 (ip), vehicle: gum acacia); 94 % of control (dose: 400.0 mg/kg/injection, schedule: Q01DX009 (ip), vehicle: gum acacia); 87 % of control (dose: 400.0 mg/kg/injection, schedule: Q04DX003 (ip), vehicle: gum acacia).
Regarding `COc1ccc(N=NS(=O)O)cc1`, the T/C is, setting by setting: (dose: 100.0 mg/kg/injection, schedule: Q01DX001 (ip), vehicle: Klucel (hydroxypropylcellulose) (HPC)) 98 % of control; (dose: 200.0 mg/kg/injection, schedule: Q01DX001 (ip), vehicle: Klucel (hydroxypropylcellulose) (HPC)) 97 % of control; (dose: 400.0 mg/kg/injection, schedule: Q01DX001 (ip), vehicle: Klucel (hydroxypropylcellulose) (HPC)) 95 % of control.
Consider `Cc1cccc(=O)n1Cc1ccccc1`, for which the T/C was 104 % of control under setting [9]; 97 % of control under setting [8]; 98 % of control under setting [10]; 91 % of control (dose: 200.0 mg/kg/injection, schedule: Q01DX009 (ip), vehicle: saline with Tween-80); 105 % of control under setting [11]; 88 % of control (dose: 400.0 mg/kg/injection, schedule: Q01DX009 (ip), vehicle: saline with Tween-80).
For the compound `CCOC(=O)C(CC1CC(=O)Nc2ccccc21)C(=O)OCC` (centres undefined), the T/C under setting [9] is 95 % of control, the T/C under setting [10] is 97 % of control and the T/C under setting [11] was 101 % of control.
Consider `O=C(O)c1ccc2[nH]c(=O)c(=O)[nH]c2c1`, for which the T/C under setting [6] is 96 % of control; the T/C under setting [7] is 101 % of control; the T/C (dose: 400.0 mg/kg/injection, schedule: Q04DX003 (ip), vehicle: Klucel (hydroxypropylcellulose) (HPC)) was 102 % of control.

The values are drawn from PubChem BioAssay AID248 (DTP/NCI, 2004).
